Test results taken from patent US20120189546A1, “Radiolabelling Method Using Cycloalkyl Groups” (BAYER PHARMA AKTIENGESELLSCHAFT, priority 2009, published 2012).
Several values for one entry are separate records, joined by “and”; a condition that tells them apart may be missing. Identical values can stand only once. One block for each compound: values may come before it.

Key:
[1] = In vitro plasma stability, human plasma; format: in vitro ADME; details: for MEAN [%] / % v. 0 h: human female plasma, 0.3 μM; for % v. 0 h: single values
Method: (§1) This investigation determines the stability of test compound in plasma of different species. […] Samples were freezed at −20° C. overnight, subsequently centrifuged for 15 minutes at 3000 rpm and the supernatant was analyzed with an Agilent 1200 HPLC-system with LCMS/MS detection.
(§2) The stability of the test compound was quantified by comparison of the remaining amount at the different time points with the amount of the 0 min sample and is expressed in % of initial concentration.

[2] = test system: A549 human lung carcinoma cell line; assay: [H-3]-D-Tyrosine uptake competition in A549 cells; format: cell-based; details: 30 min, 100 μM competitor, 2.8% without competitor
Method: Cells were seeded 1-2 days prior to the assay and grown until sub-confluency in 48 well plates. Prior to the assay the cell culture medium was removed and the cells were washed with phosphate buffered saline (PBS)+0.1% Bovine serum albumin (BSA). After adding the assay buffer (PBS+0.1% BSA), 37 KBq of the radiotracer [H-3]-D-Tyrosine was added immediately and was incubated with cells at 37° C. in a humidified atmosphere containing 5% CO2 for 30 min. For investigation of transporter characteristics and competitions, the cells were coincubated with 100 μM F-DOPA or compound 29 (FCBT) for 30 min to monitor radioactivity uptake. To stop tracer uptake the incubation buffer was removed after 30 min, the cells were washed and lysed with 1 M sodium hydroxide. Subsequently the amount of radioactivity in the cell lysate was determined in a scintillation counter.
(§3) Aliquots of the applied tracer amount were measured in a gamma counter to determine the total amount in counts per minute (cpm) together with the samples to correct for tracer decay. Cell numbers per well were determined after detaching cells by trypsinization in 3 wells prior to start of the assay and counted in cell chamber under a microscope. The mean of cells was calculated. To compare tracer uptake between different studies the cell number was normalized to 100,000 cells.

[3] = In vitro plasma stability, rat plasma; format: in vitro ADME; details: 0.3 μM
Method: as §1, §2

rat hepatocytes = assay: In vitro metabolic stability in rat hepatocytes with calculation of hepatic in vivo blood clearance; format: in vitro ADME; details: male Wistar rat hepatocytes, 0.5x10^6 cells/ml, 1 μM test compound
Method: Hepatocytes from Han Wistar rats were isolated via a 2-step perfusion method. After perfusion, the liver was carefully removed from the rat: the liver capsule was opened and the hepatocytes were gently shaked out into a Petri dish with ice-cold WME. The resulting cell suspension was filtered through sterile gaze in 50 mL falcon tubes and centrifuged at 50×g for 3 min at room temperature. The cell pellet was resuspended in 30 mL WME and centrifuged through a Percoll® gradient for 2 times at 100×g. The hepatocytes were washed again with Williams' medium E (WME) and resuspended in medium containing 5% FCS. Cell viability was determined by trypan blue exclusion.
For the metabolic stability assay liver cells were distributed in WME containing 5% FCS to glas vials at a density of 0.5×10^6 vital cells/ml. The test compound was added to a final concentration of 1 μM. During incubation, the hepatocyte suspensions were continuously shaken and aliquots were taken at 2, 8, 16, 30, 45 and 60 min, to which equal volumes of cold methanol were immediately added. Samples were freezed at −20° C. overnight, subsequently centrifuged for 15 minutes at 3000 rpm and the supernatant was analyzed with an Agilent 1200 HPLC-system with LCMS/MS detection.
The half-life of a test compound was determined from the concentration-time plot. From the half-life the intrinsic clearances were calculated.

LAT1 = molecular target: T1, LAT1 (Homo sapiens, UniProt Q01650); assay: [H-3]-D-Tyrosine efflux experiment in A549 cells (LAT1 substrate test); format: cell-based; details: A549 cells preloaded with [H-3]-D-Tyrosine, 100 μM cold compound, 0.7% without compound
T1 construct: endogenous in cells; host or cells: A549 human lung carcinoma cells
Method: To study if the compounds are transported by LAT1, the cells were incubated with 37 kBq of the radiotracer [H-3]-D-Tyrosine and was incubated with cells at 37° C. in a humidified atmosphere containing 5% CO2 for 30 min. Then the cells were washed with PBS and fresh assay buffer was added to the cells containing 100 μM concentration of cold compound and the cells were incubated for another 30 min. To stop tracer efflux the incubation buffer was removed after 30 min, the cells were washed and lysed with 1 M sodium hydroxide. Subsequently the amount of radioactivity in the cell lysate was determined in a scintillation counter.
as §3

A549 cells = assay: Cell uptake of [18F] compound 32b into A549 cells; format: cell-based, human
Method: We studied the uptake of the radiolabeled [^18F] compound 32b into A549 cells, 90000 A549 cells were seeded per cavity of a 48 well incubation plate (Becton Dickinson; Cat. 353078) and incubated for 2 days in RPMI 1640 with GlutaMAX (Invitrogen; Cat. 31331) medium supplemented with 10% FCS in an incubator (37° C., 5% CO2). Cells were washed once with PBS and then incubated for 10-30 minutes at 37° C. in PBS with 0.25 MBq of compound 32b ([^18F] labeled). After incubation, the cells were washed once with cold PBS, lysed with 1M NaOH, and finally lysates were measured in a gamma counter.

T1 sequence (Q01650 whole entry): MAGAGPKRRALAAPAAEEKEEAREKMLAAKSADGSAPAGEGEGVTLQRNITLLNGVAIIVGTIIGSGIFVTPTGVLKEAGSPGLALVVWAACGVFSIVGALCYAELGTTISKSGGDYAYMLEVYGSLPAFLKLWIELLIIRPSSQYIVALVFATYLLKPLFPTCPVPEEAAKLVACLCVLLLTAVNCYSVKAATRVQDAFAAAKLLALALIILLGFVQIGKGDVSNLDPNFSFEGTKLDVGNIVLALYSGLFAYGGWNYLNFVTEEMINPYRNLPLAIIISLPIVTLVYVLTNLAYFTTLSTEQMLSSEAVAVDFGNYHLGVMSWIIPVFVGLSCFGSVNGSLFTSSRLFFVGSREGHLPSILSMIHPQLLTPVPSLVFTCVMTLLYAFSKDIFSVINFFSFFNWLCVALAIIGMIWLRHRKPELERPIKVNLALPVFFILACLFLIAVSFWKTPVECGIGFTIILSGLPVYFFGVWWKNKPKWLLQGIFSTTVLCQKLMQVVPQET
T1 sequence (P08195 102-630 partner): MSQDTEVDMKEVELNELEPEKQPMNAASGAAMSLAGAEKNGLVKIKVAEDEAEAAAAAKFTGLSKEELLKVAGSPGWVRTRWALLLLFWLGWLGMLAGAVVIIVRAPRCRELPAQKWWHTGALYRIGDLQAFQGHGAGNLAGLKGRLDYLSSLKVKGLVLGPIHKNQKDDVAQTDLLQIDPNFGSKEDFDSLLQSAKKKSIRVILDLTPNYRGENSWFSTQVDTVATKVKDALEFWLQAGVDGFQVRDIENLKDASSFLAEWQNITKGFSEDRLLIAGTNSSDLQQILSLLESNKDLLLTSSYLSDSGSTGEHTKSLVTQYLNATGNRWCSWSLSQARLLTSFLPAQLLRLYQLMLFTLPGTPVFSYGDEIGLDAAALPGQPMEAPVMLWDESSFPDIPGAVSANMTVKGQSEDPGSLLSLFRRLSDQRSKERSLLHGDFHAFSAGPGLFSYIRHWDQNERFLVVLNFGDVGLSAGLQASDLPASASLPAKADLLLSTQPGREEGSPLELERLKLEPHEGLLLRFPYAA

MEAN [%] ([1]; 2 min incubation): 100% | % v. 0 h ([1]; 2 min incubation, trifluoroacetate salt): 96% and 104% | MEAN [%] ([1]; 30 min incubation): 111% | % v. 0 h ([1]; 30 min incubation, trifluoroacetate salt): 121% and 100% | MEAN [%] ([1]; 60 min incubation): 104% | % v. 0 h ([1]; 60 min incubation, trifluoroacetate salt): 104% and 105% | degradation in human plasma after 60 min [1]: did not show any degradation | MEAN [%] ([3]; male, rat, 2 min): 100% | % v. 0 h ([3]; male, rat, 30 min): 124% | MEAN [%] ([3]; male, rat, 30 min): 124% | MEAN [%] ([3]; male, rat, 60 min): 133% | CL blood, ws, hep (rat hepatocytes): 7.17 mL/min/kg | amount of D-Tyrosine which remained in the cell after 30 min (efflux) (LAT1): 0.08 % applied dose/100.000 cells
SMILES: N[C@@H](Cc1ccc(O[C@H]2C[C@@H](F)C2)cc1)C(=O)O.O=C(O)C(F)(F)F [Compound 29, O-(cis-3-Fluorocyclobutyl)-L-tyrosine trifluoroacetate salt]
uptake of the applied [H-3]-D-Tyrosine with compound present in the assay buffer [2]: 1.1%

SMILES: N[C@@H](Cc1ccc(O[C@H]2C[C@@H]([18F])C2)cc1)C(=O)O [Compound 32b, O-(cis-3-[^18F]Fluorocyclobutyl)-L-tyrosine]
maximum uptake (A549 cells; A549 cells, after 30 min, 0.25 MBq in PBS, 37° C.): 5.87 % applied dose/10^6 cells | accumulation in tumor cells (A549 cells; all tested tumor cells): good accumulation

SMILES: N[C@@H](Cc1cc(O)c(O)cc1[18F])C(=O)O [F-DOPA, reference compound]
uptake of the applied [H-3]-D-Tyrosine with compound present in the assay buffer [2]: 1.8% | amount of D-Tyrosine which remained in the cell after 30 min (efflux) (LAT1): 0.11 % applied dose/100.000 cells

SMILES: N[C@@H](Cc1ccc(OCCF)cc1)C(=O)O [O-(2-[^19F]Fluoroethyl)-L-tyrosine, reference compound]
MEAN [%] ([1]; 1 min incubation): 100% | % v. 0 h ([1]; 1 min incubation, listed as FET): 101% and 99% | MEAN [%] ([1]; 30 min incubation): 103% | % v. 0 h ([1]; 30 min incubation, listed as FET): 101% and 105% | MEAN [%] ([1]; 60 min incubation): 50% | % v. 0 h ([1]; 60 min incubation, listed as FET): 52% and 49% | degradation in human plasma after 60 min [1]: 50% | MEAN [%] ([3]; rat male plasma, 1 min incubation): 100% | % v. 0 h ([3]; rat male plasma, 1 min incubation, single values, listed as FET): 92% and 108% | MEAN [%] ([3]; rat male plasma, 30 min incubation): 109% | % v. 0 h ([3]; rat male plasma, 30 min incubation, single values, listed as FET): 110% and 109% | MEAN [%] ([3]; rat male plasma, 60 min incubation): 119% | % v. 0 h ([3]; rat male plasma, 60 min incubation, single values, listed as FET): 120% and 118%
